In patent US7714134B2, “Compounds and use of tetrahydropyridothiophenes” (4SC AG, priority 2004, dated 2010) one finds IC50 data, which are given here for 14 compounds.

SMILES strings stand for the structures. A value given as a limit tells only on which side of the number the result lay.

Test [1] relates to RKO (RKOp27) human colon adenocarcinoma cells. The experiment in a line: Alamar Blue cell viability assay, anti-proliferative/cytotoxic activity, RKO p27 uninduced. The class given is cell-based. The note with it: RKOp27, 72 h, proliferating cells, absence of the inducer Ponasterone A, 72 hours incubation. The essentials:
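RKOp27 colon adenocarcinoma subclones, uninduced, seeded at 4000 cells/well and treated 24 h later with semi-log compound dilutions in DMEM with 10% FCS, in quadruplicate. After 72 h at 37 °C, 5% CO2, viability read by Alamar Blue fluorescence (544/590 nm) relative to untreated cells; IC50 taken from concentration-effect curves.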
In general terms: Alamar Blue is a resazurin reagent that responds to reducing activity.

Test [2] has as its system RKO colon adenocarcinoma cells (RKOp27) arrested by expression of ectopic p27Kip1. The experiment in a line: Alamar Blue cell viability assay, cell cycle specific mode of action, RKO p27 induced (arrested by Ponasterone A-induced p27Kip1). The format is cell-based. The note with it: Homo sapiens, RKOp27, 72 h, cells arrested by p27Kip1 induced with 10 μM Ponasterone A, 72 hours incubation. The essentials: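 RKOp27 cells were seeded at 16000 per well in DMEM/10% FCS with 10 μM Ponasterone A to induce p27Kip1 arrest, then given compound dilutions 24 h later for 72 h at 37 °C. Viability was read by Alamar Blue fluorescence (544/590 nm) as % of untreated cells. Arrested cells were compared with proliferating cells grown without inducer.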

For orientation: IC50 means the concentration that gives 50% inhibition. The low end stands for higher potency, the high end for lower potency. In the case of `N#Cc1c(NC(=O)c2ccccc2)sc2c1CCN(C(=O)CCCn1ccnc1)C2` [Compound 85, N-[3-Cyano-6-(4-imidazol-1-yl-butanoyl)-4,5,6,7-tetrahydro-thieno[2,3-c]pyridin-2-yl]-benzamide], the IC50 in test [1] was not above 3 µM; in test [2], more than 100 µM.

As for `CC(=O)OCCCC(=O)N1CCc2c(sc(NC(=O)c3ccccc3)c2C#N)C1` [Compound 86, Acetic acid 4-{3-cyano-2-[(1-phenyl-methanoyl)-amino]4,7-dihydro-5H-thieno[2,3-c]pyridin-6-yl}-4-oxo-butyl ester], the IC50 in test [1] was not above 3 µM; in test [2], more than 100 µM.

As for `N#Cc1c(NC(=O)c2ccccc2)sc2c1CCN(C(=O)CO)C2` [Compound 87, N-[3-Cyano-6-(2-hydroxy-ethanoyl)-4,5,6,7-tetrahydro-thieno[2,3-c]pyridin-2-yl]-benzamide], the IC50 in test [1] was not above 3 µM; in test [2], more than 100 µM.

For the compound `N#Cc1c(NC(=O)c2ccccc2)sc2c1CCN(C(=O)CCCO)C2` [Compound 88, N-[3-Cyano-6-(4-hydroxy-butanoyl)-4,5,6,7-tetrahydro-thieno[2,3-c]pyridin-2-yl]-benzamide], the IC50 was not above 3 µM in test [1] and more than 100 µM in test [2].

In the case of `COC(=O)COC(=O)N1CCc2c(sc(NC(=O)c3ccccc3)c2C#N)C1` [Compound 93, 3-Cyano-2-[(1-phenyl-methanoyl)-amino]-4,7-dihydro-5H-thieno[2,3-c]pyridine-6-carboxylic acid methoxycarbonylmethyl ester], the IC50 in test [1] was not above 3 µM; in test [2], more than 100 µM.

Take `CC(=O)NCCOC(=O)N1CCc2c(sc(NC(=O)c3ccccc3)c2C#N)C1` [Compound 94, 3-Cyano-2-[(1-phenyl-methanoyl)-amino]4,7-dihydro-5H-thieno[2,3-c]pyridine-6-carboxylic acid 2-acetylamino-ethyl ester]: the results for the IC50 in test [1] and in test [2] were not above 3 µM and more than 100 µM, respectively.

Consider `N#Cc1c(NC(=O)c2ccccc2)sc2c1CCN(C(=O)OCCn1ccnc1)C2` [Compound 95], for which the values for the IC50 in test [1] and in test [2] were not above 3 µM and more than 100 µM, respectively.

On to `N#Cc1c(NC(=O)c2ccccc2)sc2c1CCN(C(=O)OCCO)C2` [Compound 97, 3-Cyano-2-[(1-phenyl-methanoyl)-amino]-4,7-dihydro-5H-thieno[2,3-c]pyridine-6-carboxylic acid 2-hydroxy-ethyl ester], for which the IC50 is not above 3 µM in test [1] and more than 100 µM in test [2].

As for `CCNC(=O)N1CCc2c(sc(NC(=O)c3ccccc3)c2C#N)C1` [Compound 98, 3-Cyano-2-[(1-phenyl-methanoyl)-amino]-4,7-dihydro-5H-thieno[2,3-c]pyridine-6-carboxylic acid ethylamide], the half-maximal inhibitory concentration (IC50) was not above 3 µM in test [1] and more than 100 µM in test [2].

In the case of `N#Cc1c(NC(=O)c2ccccc2)sc2c1CCN(C(=O)NCCc1ccccn1)C2` [Compound 99, 3-Cyano-2-[(1-phenyl-methanoyl)-amino]-4,7-dihydro-5H-thieno[2,3-c]pyridine-6-carboxylic acid (2-pyridin-2-yl-ethyl)-amide], the IC50 is not above 3 µM in test [1] and more than 100 µM in test [2].

For `CCOCCCNC(=O)N1CCc2c(sc(NC(=O)c3ccccc3)c2C#N)C1` [Compound 100, 3-Cyano-2-[(1-phenyl-methanoyl)-amino]-4,7-dihydro-5H-hieno[2,3-c]pyridine-6-carboxylic acid (3-ethoxy-propyl)-amide], the figures for the IC50 in test [1] and in test [2] were not above 3 µM and more than 100 µM, respectively.

As for `CCCCCSC(=O)N1CCc2c(sc(NC(=O)c3ccccc3)c2C#N)C1` [Compound 101, 3-Cyano-2-[(1-phenyl-methanoyl)-amino]-4,7-dihydro-5H-thieno[2,3-c]pyridine6-carbothioic acid S-pentyl ester], the IC50 in test [1] is not above 3 µM; in test [2], more than 100 µM.

For `COC(=O)CCSC(=O)N1CCc2c(sc(NC(=O)c3ccccc3)c2C#N)C1` [Compound 102, 3-(1{3-Cyano-2-[(1-phenyl-methanoyl)-amino]-4,7-dihydro-5H-thieno[2,3-c]pyridin-6-yl}-methanoylsulfanyl)-propionic acid methyl ester], the 50% inhibitory concentration (IC50) was not above 3 µM in test [1] and more than 100 µM in test [2].

Turning to `N#Cc1c(NC(=O)c2ccccc2)sc2c1CCN(C(=O)SCCC(=O)O)C2` [Compound 103, 3-(1-{3-Cyano-2-[(1-phenyl-methanoyl)-amino]-4,7-dihydro-5H-thieno[2,3-c]pyridin-6-yl}-methanoylsulfanyl)-propionic acid], the IC50 is not above 3 µM in test [1] and more than 100 µM in test [2].
